According to patent US9005577B2, “Substrate based PET imaging agents” (Siemens Medical Solutions USA, Inc., priority 2008, dated 2015):
Square brackets hold non-standard residues; d marks the D form. Peptide text beside a SMILES is read from it. * marks the point of attachment. PEG4 = NCCOCCOCCOCCOCCC(=O)O; X1 = O=C(Cn1cc(CCCF)nn1)*

Tests used:
Type in all cases: cell-based, human
[1] = test system: U87; test: Cold [19F] standard compound uptake in cells treated with apoptotic inducer, LC/MS (U87); conditions: cold standard compound 10 μM, 2 h, 1 mM 5FU for 2 days, % uptake normalized per mg protein extract
Method: (§1) When cells grown in 6-well plates reached 80% confluence, the growth medium was replaced with 2 ml of fresh medium containing 1 mM of 5FU. After two days of apoptotic induction, the standard compound was added into the cultures (control and 5FU treated) at a final concentration of 10 μM. The cells were cultured in the incubator for 2 hours for compound uptake. Then, (in the case of experiments involving the use of caspase-3 inhibitors as blockers, the inhibitor was added to the cells 1 hour early before the addition of standard compound). 100 μl of cell culture medium for each sample was collected, and the cells were harvested by centrifugation. Cell pellets were washed twice with 1×PBS, and lysed in 100 μl of lysis buffer. Both cell lysate and medium were boiled for 5 minutes to denature proteins, cooled down on ice, then 100 μl of chloroform/methanol (50/50 ratio) were added. After vortexing and extraction, the samples were centrifuged in Eppendorf tubes in a micro centrifuge at 13000 rpm for 15 minutes at 4 C. 50 μl of the supernatant was transferred to an HPLC vial. The amounts of compound (or product of caspase-3 cleavage) inside the cells and in the medium were measured by LC/MS. The % uptake=total amount of cell uptake/total amount of compound X 100%. The % uptake was normalized by the amount of cellular protein extract (mg): % Uptake/mg protein extracts.

[2] = test system: A498; test: Cold [19F] standard compound uptake in cells treated with apoptotic inducer, LC/MS (A498); conditions: cold standard compound 10 μM, 2 h, 1 mM 5FU for 2 days, % uptake normalized per mg protein extract
Method: as §1

[3] = test system: HT29; test: Cold [19F] standard compound uptake in cells treated with apoptotic inducer, LC/MS (HT29); conditions: cold standard compound 10 μM, 2 h, 1 mM 5FU for 2 days, % uptake normalized per mg protein extract
Method: as §1

[4] = test system: H2122; test: Cold [19F] standard compound uptake in cells treated with apoptotic inducer, LC/MS (H2122); conditions: cold standard compound 10 μM, 2 h, 1 mM 5FU for 2 days, % uptake normalized per mg protein extract
Method: as §1

[5] = test system: U87; test: [18F]-tracer compound uptake in cancer cell lines treated with apoptotic inducer 5FU (U87); conditions: [18F]-tracer 10 μCi/well, 2 h incubation, 1 mM 5FU for 2 days; % uptake normalized per mg protein extract
Method: (§2) Cells grown overnight and having reached about 80% confluence in 6-well plates were exposed to 1 mM of apoptotic inducer 5FU for 2 days in a cell culture incubator. The [18F]-labeled tracer was added into each well (triplicates for control and 5FU treated) at 10 μCi/well. (in case of experiments involving the use of caspase-3 inhibitors as blockers, the inhibitor was added to the cells 1 hour before the addition of the [18F]-tracer). The cells were then incubated for two hours. Cells were collected by scrape and centrifugation. Cell pellets were washed twice with 1λ PBS. The amount of tracer inside the cells and in the medium was measured by y-counter. The % Uptake=total CPM inside cells/total tracer CPM×100%. The % Uptake was normalized by the amount of cellular protein extract (mg): % uptake/mg protein extracts.

[6] = test system: A498; test: [18F]-tracer compound uptake in cancer cell lines treated with apoptotic inducer 5FU (A498); conditions: [18F]-tracer 10 μCi/well, 2 h incubation, 1 mM 5FU for 2 days; % uptake normalized per mg protein extract
Method: as §2

[7] = test system: HT29; test: [18F]-tracer compound uptake in cancer cell lines treated with apoptotic inducer 5FU (HT29); conditions: [18F]-tracer 10 μCi/well, 2 h incubation, 1 mM 5FU for 2 days; % uptake normalized per mg protein extract
Method: as §2

SMILES	percent uptake U87 [1] [%]	percent uptake A498 [2] [%]	percent uptake HT29 [3] [%]	percent uptake H2122 [4] [%]	percent uptake U87 [5] [%]	percent uptake A498 [6] [%]	percent uptake HT29 [7] [%]
CC(C)[C@H](NC(=O)[C@H](CCC(=O)O)NC(=O)[C@H](CC(=O)O)NC(=O)Cn1cc(CCCF)nn1)C(=O)N[C@@H](CC(=O)O)C(=O)N[C@@H](C)C(=O)NCCOCCOCCOCCOCCC(=O)O [Compound 21] (X1-DEVDA[PEG4]-OH)	2.0	2.1	1.1	1.3	–	–	–
CC(C)[C@H](NC(=O)[C@H](CCC(=O)O)NC(=O)[C@H](CC(=O)O)NC(=O)Cn1cc(CCCF)nn1)C(=O)N[C@@H](CC(=O)O)C(=O)NCC(=O)N[C@@H](CCCCN)C(=O)N[C@@H](CCCCN)C(=O)N[C@@H](CCCCN)C(=O)N[C@@H](CCCCN)C(N)=O [Compound 27] (X1-DEVDGKKKK-NH2)	2.5	4.5	1.7	2.0	–	–	–
CC(C)[C@H](NC(=O)[C@H](CCC(=O)O)NC(=O)[C@H](CC(=O)O)NC(=O)Cn1cc(CCC[18F])nn1)C(=O)N[C@@H](CC(=O)O)C(=O)N[C@@H](C)C(=O)NCCOCCOCCOCCOCCC(=O)O [^18F-21]	–	–	–	–	2.1	1.8	2.1
CC(C)[C@H](NC(=O)[C@H](CCC(=O)O)NC(=O)[C@H](CC(=O)O)NC(=O)C1OC(CNC(=O)Cn2cc(CCC[18F])nn2)C(O)C(O)C1O)C(=O)N[C@@H](CC(=O)O)C(=O)NCC(N)=O (stereo partly drawn) [^18F-49]	–	–	–	–	–	1.5	–
CC(C)[C@H](NC(=O)[C@H](CCC(=O)O)NC(=O)[C@H](CC(=O)O)NC(=O)C1OC(CNC(=O)Cn2cc(CCC[18F])nn2)C(O)C(O)C1O)C(=O)N[C@@H](CC(=O)O)C(=O)N[C@@H](C)C(=O)NCCOCCOCCOCCOCCC(=O)O (stereo partly drawn) [^18F-56]	–	–	–	–	2.1	2.1	1.9
